Measurements from patent publication US20250171438A1 (Agios Pharmaceuticals, Inc., priority 2022, published 2025).

Target: T1, human PAH with the R408W mutation (Homo sapiens, UniProt P00439, R408W)
T1 construct: expressed in transfected cells
T1 sequence (P00439 1-452 R408W): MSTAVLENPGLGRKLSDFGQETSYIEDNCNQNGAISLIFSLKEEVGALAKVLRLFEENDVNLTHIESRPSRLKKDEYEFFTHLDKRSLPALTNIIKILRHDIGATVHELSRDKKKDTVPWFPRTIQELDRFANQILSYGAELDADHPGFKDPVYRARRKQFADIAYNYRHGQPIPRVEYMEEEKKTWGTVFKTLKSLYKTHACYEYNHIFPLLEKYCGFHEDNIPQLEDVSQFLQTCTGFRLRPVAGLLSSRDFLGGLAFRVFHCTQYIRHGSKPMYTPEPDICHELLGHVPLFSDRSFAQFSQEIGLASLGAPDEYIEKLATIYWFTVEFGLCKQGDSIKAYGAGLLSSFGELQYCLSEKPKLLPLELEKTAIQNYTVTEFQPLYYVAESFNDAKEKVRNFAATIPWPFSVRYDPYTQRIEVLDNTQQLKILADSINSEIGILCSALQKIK
Test: Cell Based Phenylalanine Flux Assay
Conditions: A375 cells expressing human R408W PAH; 24 hrs compound incubation; 13C-Tyrosine by LC-MS; average where tested multiple times; read-out: AC50

Row | AC50 | SMILES
1 | 1 to 5 µM | O=C(c1nccs1)N1CCc2[nH]cnc2[C@@H]1c1nc2c(Cl)cccc2s1 [Example 1202, (R)-(4-(4-chlorobenzo[d]thiazol-2-yl)-6,7-dihydro-1H-imidazo[4,5-c]pyridin-5(4H)-yl)(thiazol-2-yl)methanone]
2 | 0.5 to 1 µM | O=C(c1cnc(-c2ccccc2)s1)N1CCc2[nH]cnc2[C@H]1c1nc2ccccc2s1 [Example 1203]
3 | 1 to 5 µM | O=C(c1cnc(-c2ccccc2)s1)N1CCc2[nH]cnc2[C@@H]1c1nc2ccccc2s1 [Example 1204, (R)-(4-(benzo[d]thiazol-2-yl)-6,7-dihydro-1H-imidazo[4,5-c]pyridin-5(4H)-yl)(2-phenylthiazol-5-yl)methanone]
4 | < 0.5 µM | O=C(c1cnc(-c2ccccn2)s1)N1CCc2[nH]cnc2[C@H]1c1nc2ccccc2s1 [Example 1205]
5 | 1 to 5 µM | O=C(c1cnc(-c2ccccn2)s1)N1CCc2[nH]cnc2[C@@H]1c1nc2ccccc2s1 [Example 1206, (R)-(4-(benzo[d]thiazol-2-yl)-6,7-dihydro-1H-imidazo[4,5-c]pyridin-5(4H)-yl)(2-(pyridin-2-yl)thiazol-5-yl)methanone]
6 | < 0.5 µM | O=C(c1cnc(-c2ccccc2)o1)N1CCc2[nH]cnc2[C@H]1c1nc2ccccc2s1 [Example 1207]
7 | 1 to 5 µM | O=C(c1cnc(-c2ccccc2)o1)N1CCc2[nH]cnc2[C@@H]1c1nc2ccccc2s1 [Example 1208, (R)-(4-(benzo[d]thiazol-2-yl)-6,7-dihydro-1H-imidazo[4,5-c]pyridin-5(4H)-yl)(2-phenyloxazol-5-yl)methanone]
8 | 1 to 5 µM | O=C(c1cnn2cc(-c3ccccc3)ccc12)N1CCc2[nH]cnc2[C@H]1c1nc2ccccc2s1 [Example 1209]
9 | > 5 µM | O=C(c1cnn2cc(-c3ccccc3)ccc12)N1CCc2[nH]cnc2[C@@H]1c1nc2ccccc2s1 [Example 1210, (R)-(4-(benzo[d]thiazol-2-yl)-6,7-dihydro-1H-imidazo[4,5-c]pyridin-5(4H)-yl)(6-phenylpyrazolo[1,5-a]pyridin-3-yl)methanone]
10 | 0.5 to 1 µM | O=C(c1cnn2cc(-c3ccccn3)ccc12)N1CCc2[nH]cnc2[C@H]1c1nc2ccccc2s1 [Example 1211]
11 | > 5 µM | O=C(c1cnn2cc(-c3ccccn3)ccc12)N1CCc2[nH]cnc2[C@@H]1c1nc2ccccc2s1 [Example 1212, (R)-(4-(benzo[d]thiazol-2-yl)-6,7-dihydro-1H-imidazo[4,5-c]pyridin-5(4H)-yl)(6-(pyridin-2-yl)pyrazolo[1,5-a]pyridin-3-yl)methanone]
12 | < 0.5 µM | Cn1cc(-c2ccc3c(C(=O)N4CCc5[nH]cnc5[C@H]4c4nc5ccccc5s4)cnn3c2)cn1 [Example 1213]
13 | 1 to 5 µM | Cn1cc(-c2ccc3c(C(=O)N4CCc5[nH]cnc5[C@@H]4c4nc5ccccc5s4)cnn3c2)cn1 [Example 1214, (R)-(4-(benzo[d]thiazol-2-yl)-6,7-dihydro-1H-imidazo[4,5-c]pyridin-5(4H)-yl)(6-(1-methyl-1H-pyrazol-4-yl)pyrazolo[1,5-a]pyridin-3-yl)methanone]
14 | < 0.5 µM | O=C(c1cnn2cc(F)ccc12)N1CCc2[nH]cnc2[C@H]1c1nc2c(F)cccc2s1 [Example 1215, (S)-(4-(4-fluorobenzo[d]thiazol-2-yl)-6,7-dihydro-1H-imidazo[4,5-c]pyridin-5(4H)-yl)(6-fluoropyrazolo[1,5-a]pyridin-3-yl)methanone]
15 | 1 to 5 µM | O=C(c1cnn2cc(F)ccc12)N1CCc2[nH]cnc2[C@@H]1c1nc2c(F)cccc2s1 [Example 1216, (R)-(4-(4-fluorobenzo[d]thiazol-2-yl)-6,7-dihydro-1H-imidazo[4,5-c]pyridin-5(4H)-yl)(6-fluoropyrazolo[1,5-a]pyridin-3-yl)methanone]
16 | 0.5 to 1 µM | O=C(c1cncs1)N1CCc2[nH]cnc2[C@H]1c1nc2c(F)cccc2s1 [Example 1217, (S)-(4-(4-fluorobenzo[d]thiazol-2-yl)-6,7-dihydro-1H-imidazo[4,5-c]pyridin-5(4H)-yl)(thiazol-5-yl)methanone]
17 | 1 to 5 µM | O=C(c1cncs1)N1CCc2[nH]cnc2[C@@H]1c1nc2c(F)cccc2s1 [Example 1218, (R)-(4-(4-fluorobenzo[d]thiazol-2-yl)-6,7-dihydro-1H-imidazo[4,5-c]pyridin-5(4H)-yl)(thiazol-5-yl)methanone]
18 | < 0.5 µM | O=C(c1ncc(Cl)s1)N1CCc2[nH]cnc2[C@H]1c1nc2c(F)cccc2s1 [Example 1219]
19 | 1 to 5 µM | O=C(c1ncc(Cl)s1)N1CCc2[nH]cnc2[C@@H]1c1nc2c(F)cccc2s1 [Example 1220, (R)-(5-chlorothiazol-2-yl)(4-(4-fluorobenzo[d]thiazol-2-yl)-6,7-dihydro-1H-imidazo[4,5-c]pyridin-5(4H)-yl)methanone]
20 | < 0.5 µM | O=C(c1cnn2ccccc12)N1CCc2[nH]cnc2[C@H]1c1nc2c(Cl)cccc2s1 [Example 1221, (S)-(4-(4-chlorobenzo[d]thiazol-2-yl)-6,7-dihydro-1H-imidazo[4,5-c]pyridin-5(4H)-yl)(pyrazolo[1,5-a]pyridin-3-yl)methanone]
21 | 1 to 5 µM | O=C(c1cnn2ccccc12)N1CCc2[nH]cnc2[C@@H]1c1nc2c(Cl)cccc2s1 [Example 1222, (R)-(4-(4-chlorobenzo[d]thiazol-2-yl)-6,7-dihydro-1H-imidazo[4,5-c]pyridin-5(4H)-yl)(pyrazolo[1,5-a]pyridin-3-yl)methanone]
22 | 0.5 to 1 µM | O=C(c1cnco1)N1CCc2[nH]cnc2[C@H]1c1nc2c(F)cccc2s1 [Example 1223, (S)-(4-(4-fluorobenzo[d]thiazol-2-yl)-6,7-dihydro-1H-imidazo[4,5-c]pyridin-5(4H)-yl)(oxazol-5-yl)methanone]
23 | 1 to 5 µM | O=C(c1cnco1)N1CCc2[nH]cnc2[C@@H]1c1nc2c(F)cccc2s1 [Example 1224, (R)-(4-(4-fluorobenzo[d]thiazol-2-yl)-6,7-dihydro-1H-imidazo[4,5-c]pyridin-5(4H)-yl)(oxazol-5-yl)methanone]
24 | 0.5 to 1 µM | O=C(c1ncco1)N1CCc2[nH]cnc2[C@H]1c1nc2c(F)cccc2s1 [Example 1225, (S)-(4-(4-fluorobenzo[d]thiazol-2-yl)-6,7-dihydro-1H-imidazo[4,5-c]pyridin-5(4H)-yl)(oxazol-2-yl)methanone]
25 | > 5 µM | O=C(c1ncco1)N1CCc2[nH]cnc2[C@@H]1c1nc2c(F)cccc2s1 [Example 1226, (R)-(4-(4-fluorobenzo[d]thiazol-2-yl)-6,7-dihydro-1H-imidazo[4,5-c]pyridin-5(4H)-yl)(oxazol-2-yl)methanone]
26 | 1 to 5 µM | O=C(c1cnc(Cc2ccccc2)s1)N1CCc2[nH]cnc2[C@H]1c1nc2ccccc2s1 [Example 1227]
27 | 1 to 5 µM | O=C(c1cnc(Cc2ccccc2)s1)N1CCc2[nH]cnc2[C@@H]1c1nc2ccccc2s1 [Example 1228, (R)-(4-(benzo[d]thiazol-2-yl)-6,7-dihydro-1H-imidazo[4,5-c]pyridin-5(4H)-yl)(2-benzylthiazol-5-yl)methanone]
28 | < 0.5 µM | Cn1cc(-c2ncc(C(=O)N3CCc4[nH]cnc4[C@H]3c3nc4ccccc4s3)s2)cn1 [Example 1229]
29 | 1 to 5 µM | Cn1cc(-c2ncc(C(=O)N3CCc4[nH]cnc4[C@@H]3c3nc4ccccc4s3)s2)cn1 [Example 1230, (R)-(4-(benzo[d]thiazol-2-yl)-6,7-dihydro-1H-imidazo[4,5-c]pyridin-5(4H)-yl)(2-(1-methyl-1H-pyrazol-4-yl)thiazol-5-yl)methanone]
